Experimental data taken from patent publication US11717508B2, “Compounds, compositions, and methods for inhibiting bacterial growth” (priority 2016, dated 2023).
“And” between values parts separate entries of the source, which are not always exact repeats. Equal entries are not always repeated. Where two headings read alike, the source gives them in different places.

How the values were obtained:
CDC1551(ΔdosR) mutant = type: cell-based; conditions: for log2 Fold change: DosR mutant, HC101A vs DMSO; for Counts per million (CPM): DosR mutant treated with HC101A, replicates 1, 2
[1] = tested on: DosR-regulated genes (dosR, hspX and tgs1); type: cell-based, Mycobacterium tuberculosis
DosS = type: biochemical, Mycobacterium tuberculosis
DosT = DosT (Mycobacterium tuberculosis, UniProt P9WGK1, G115L); type: biochemical

Structure (SMILES): C[C@@H]1CC[C@H]2[C@@H](C)C(=O)O[C@@H]3O[C@]4(C)CC[C@@H]1[C@]32OO4 [HC101A, artemisinin, reference compound]
- log2 Fold change (CDC1551(ΔdosR) mutant; gene MT1775): −1.012
- log2 Fold change (CDC1551(ΔdosR) mutant; gene MT1836 Rv1787 PPE): 1.847
- Counts per million (CPM) (CDC1551(ΔdosR) mutant; gene MT1854 Rv1804c): 12.83 CPM and 20.46 CPM
- log2 Fold change (CDC1551(ΔdosR) mutant; gene MT1854 Rv1804c): −1.101
- log2 Fold change (CDC1551(ΔdosR) mutant; gene MT1893 Rv1845c): 1.059
- Counts per million (CPM) (CDC1551(ΔdosR) mutant; gene MT1922 Rv1873): 11.35 CPM and 17.72 CPM
- log2 Fold change (CDC1551(ΔdosR) mutant; gene MT1922 Rv1873): −1.314
- Counts per million (CPM) (CDC1551(ΔdosR) mutant; gene MT1969 Rv1918c PPE): 90.23 CPM and 98.57 CPM
- log2 Fold change (CDC1551(ΔdosR) mutant; gene MT1969 Rv1918c PPE): −1.009
- Counts per million (CPM) (CDC1551(ΔdosR) mutant; gene MT2040 Rv1986): 79.07 CPM and 31.42 CPM
- log2 Fold change (CDC1551(ΔdosR) mutant; gene MT2040 Rv1986): −2.384
- log2 Fold change (CDC1551(ΔdosR) mutant; gene MT2126 Rv2066 cobl): 1.049
- Counts per million (CPM) (CDC1551(ΔdosR) mutant; gene MT2166 Rv2107 PE): 25.86 CPM and 35.24 CPM
- log2 Fold change (CDC1551(ΔdosR) mutant; gene MT2166 Rv2107 PE): −1.899
- Counts per million (CPM) (CDC1551(ΔdosR) mutant; gene MT2167 Rv2108 PPE): 31.6 CPM and 38.76 CPM
- log2 Fold change (CDC1551(ΔdosR) mutant; gene MT2167 Rv2108 PPE): −1.672
- Counts per million (CPM) (CDC1551(ΔdosR) mutant; gene MT2168): 9.545 CPM and 9.201 CPM
- log2 Fold change (CDC1551(ΔdosR) mutant; gene MT2168): −1.358
- log2 Fold change (CDC1551(ΔdosR) mutant; gene MT2264 Rv2208 cobS): 1.264
- Counts per million (CPM) (CDC1551(ΔdosR) mutant; gene MT2278 Rv2220 glnA1): 635.9 CPM and 701.1 CPM
- log2 Fold change (CDC1551(ΔdosR) mutant; gene MT2278 Rv2220 glnA1): −1.188
- Counts per million (CPM) (CDC1551(ΔdosR) mutant; gene MT2284 Rv2225 panB): 197.5 CPM and 213.5 CPM
- log2 Fold change (CDC1551(ΔdosR) mutant; gene MT2284 Rv2225 panB): −1.005
- Counts per million (CPM) (CDC1551(ΔdosR) mutant; gene MT2304 Rv2244 acpM): 831.8 CPM and 1,835.61 CPM
- log2 Fold change (CDC1551(ΔdosR) mutant; gene MT2304 Rv2244 acpM): −1.454
- Counts per million (CPM) (CDC1551(ΔdosR) mutant; gene MT2305 Rv2245 kasA): 1,175.19 CPM and 2,060.94 CPM
- log2 Fold change (CDC1551(ΔdosR) mutant; gene MT2305 Rv2245 kasA): −1.196
- Counts per million (CPM) (CDC1551(ΔdosR) mutant; gene MT2306): 704.1 CPM and 1,234.02 CPM
- log2 Fold change (CDC1551(ΔdosR) mutant; gene MT2306): −1.017
- Counts per million (CPM) (CDC1551(ΔdosR) mutant; gene MT2391 Rv2329c narK1): 72.04 CPM and 74 CPM
- log2 Fold change (CDC1551(ΔdosR) mutant; gene MT2391 Rv2329c narK1): −1.058
- Counts per million (CPM) (CDC1551(ΔdosR) mutant; gene MT2417): 8.836 CPM and 16.05 CPM
- log2 Fold change (CDC1551(ΔdosR) mutant; gene MT2417): −1.114
- Counts per million (CPM) (CDC1551(ΔdosR) mutant; gene MT2503 Rv2428 ahpC): 372.7 CPM and 897.9 CPM
- log2 Fold change (CDC1551(ΔdosR) mutant; gene MT2503 Rv2428 ahpC): −1.173
- Counts per million (CPM) (CDC1551(ΔdosR) mutant; gene MT2504 Rv2429 ahpD): 163.9 CPM and 315.8 CPM
- Counts per million (CPM) (CDC1551(ΔdosR) mutant; gene MT2506): 236.2 CPM and 203 CPM
- log2 Fold change (CDC1551(ΔdosR) mutant; gene MT2506): −1.06
- Counts per million (CPM) (CDC1551(ΔdosR) mutant; gene MT2526 Rv2450c): 892.4 CPM and 239.7 CPM
- log2 Fold change (CDC1551(ΔdosR) mutant; gene MT2526 Rv2450c): −1.032
- log2 Fold change (CDC1551(ΔdosR) mutant; gene MT2615 Rv2540c aroF): 1.402
- log2 Fold change (CDC1551(ΔdosR) mutant; gene MT2631): 1.063
- Counts per million (CPM) (CDC1551(ΔdosR) mutant; gene MT2698 Rv2623): 41.08 CPM and 44.83 CPM
- log2 Fold change (CDC1551(ΔdosR) mutant; gene MT2698 Rv2623): −1.072
- Counts per million (CPM) (CDC1551(ΔdosR) mutant; gene MT2778 Rv2705c): 45.21 CPM and 56.67 CPM
- log2 Fold change (CDC1551(ΔdosR) mutant; gene MT2778 Rv2705c): −1.01
- Counts per million (CPM) (CDC1551(ΔdosR) mutant; gene MT2849 Rv2779c): 26.89 CPM and 12.92 CPM
- log2 Fold change (CDC1551(ΔdosR) mutant; gene MT2849 Rv2779c): −1.668
- Counts per million (CPM) (CDC1551(ΔdosR) mutant; gene MT2850 Rv2780 ald): 1,263.03 CPM and 369.1 CPM
- log2 Fold change (CDC1551(ΔdosR) mutant; gene MT2850 Rv2780 ald): −1.861
- log2 Fold change (CDC1551(ΔdosR) mutant; gene MT2863 Rv2794c): 1.021
- Counts per million (CPM) (CDC1551(ΔdosR) mutant; gene MT3065 Rv2987c leuD): 140.2 CPM and 20.16 CPM
- log2 Fold change (CDC1551(ΔdosR) mutant; gene MT3065 Rv2987c leuD): −1.094
- log2 Fold change (CDC1551(ΔdosR) mutant; gene MT3110 Rv3026c): 1.612
- Counts per million (CPM) (CDC1551(ΔdosR) mutant; gene MT3118 Rv3033): 22.06 CPM and 33.57 CPM
- Counts per million (CPM) (CDC1551(ΔdosR) mutant; gene MT3132): 35.54 CPM and 21.04 CPM
- log2 Fold change (CDC1551(ΔdosR) mutant; gene MT3132): −1.912
- log2 Fold change (CDC1551(ΔdosR) mutant; gene MT3133 Rv3048c nrdG): −2.008
- log2 Fold change (CDC1551(ΔdosR) mutant; gene MT3134 Rv3049c): −2.181
- log2 Fold change (CDC1551(ΔdosR) mutant; gene MT3178 Rv3094c): −1.319
- log2 Fold change (CDC1551(ΔdosR) mutant; gene MT3293 Rv3199c): 1.039
- log2 Fold change (CDC1551(ΔdosR) mutant; gene MT3327 Rv3230c): 1.145
- log2 Fold change (CDC1551(ΔdosR) mutant; gene MT3441 Rv3338): −1.641
- log2 Fold change (CDC1551(ΔdosR) mutant; gene MT3481 Rv3371): −1.101
- log2 Fold change (CDC1551(ΔdosR) mutant; gene MT3498 Rv3391 acrA1): −1.036
- log2 Fold change (CDC1551(ΔdosR) mutant; gene MT3581 Rv3477 PE): −1.558
- log2 Fold change (CDC1551(ΔdosR) mutant; gene MT3591 Rv3487c lipF): −1.301
- log2 Fold change (CDC1551(ΔdosR) mutant; gene MT3947 Rv3839): −1.144
- log2 Fold change (CDC1551(ΔdosR) mutant; gene MT3963 Rv3848): −1.017
- log2 Fold change (CDC1551(ΔdosR) mutant; gene MT3969 Rv3854c): −2.018
- log2 Fold change (CDC1551(ΔdosR) mutant; gene MT3970 Rv3855): −1.5
- log2 Fold change (CDC1551(ΔdosR) mutant; gene MT3976 Rv3862c): −1.387
- log2 Fold change (CDC1551(ΔdosR) mutant; gene MT3978 Rv3864): −1.324
- log2 Fold change (CDC1551(ΔdosR) mutant; gene MT3988 Rv3874): −1.066
- log2 Fold change (CDC1551(ΔdosR) mutant; gene MT3989 Rv3875 esat6): −1.043
- resistance to artemisinin of DosT (G115L) vs WT DosT or DosT (G85L) [1]: ~5 fold
- oxidation of DosS (E87L) and DosS (G117L) proteins by artemisinin (DosS): resistant to oxidation
- response of DosT (G115L) protein to artemisinin (DosT): exhibits artemisinin resistance
